Assays:
Assay type in all cases: functional
[1] = Growth inhibition of human HCC2998 cells incubated for 48 hrs by sulforhodamine B assay; conditions: HCC 2998, 48 h
[2] = Growth inhibition of human MOLT4 cells incubated for 48 hrs by sulforhodamine B assay; conditions: MOLT-4, 48 h
[3] = Growth inhibition of human SF295 cells incubated for 48 hrs by sulforhodamine B assay; conditions: SF-295, 48 h
SN12C = test: Growth inhibition of human SN12C cells incubated for 48 hrs by sulforhodamine B assay
NCI-H322M = test: Growth inhibition of human NCI-H322M cells incubated for 48 hrs by sulforhodamine B assay
[4] = Growth inhibition of human HCT15 cells incubated for 48 hrs by sulforhodamine B assay; conditions: HCT-15, 48 h
EKVX [5] = test: Growth inhibition of human EKVX cells assessed as cell growth at 10 uM incubated for 48 hrs by sulforhodamine B assay relative to control; conditions: read-out: Activity
KM12 = test: Growth inhibition of human KM12 cells incubated for 48 hrs by sulforhodamine B assay; conditions: KM12, 48 h
Malme-3M = test: Growth inhibition of human MALME-3M cells incubated for 48 hrs by sulforhodamine B assay
K562 = test: Growth inhibition of human K562 cells incubated for 48 hrs by sulforhodamine B assay; conditions: K562, 48 h
[6] = Growth inhibition of human UO31 cells incubated for 48 hrs by sulforhodamine B assay; conditions: UO-31, 48 h
[7] = Growth inhibition of human HL-60(TB) cells incubated for 48 hrs by sulforhodamine B assay; conditions: HL-60, 48 h
[8] = Growth inhibition of human OVCAR5 cells incubated for 48 hrs by sulforhodamine B assay; conditions: OVCAR-5, 48 h
MDA-MB-231 = test: Growth inhibition of human MDA-MB-231/ATCC cells incubated for 48 hrs by sulforhodamine B assay; conditions: MDA-MB-231, 48 h
SR = test: Growth inhibition of human SR cells incubated for 48 hrs by sulforhodamine B assay
[9] = Growth inhibition of human COLO205 cells incubated for 48 hrs by sulforhodamine B assay; conditions: COLO 205, 48 h
[10] = Growth inhibition of human HOP62 cells incubated for 48 hrs by sulforhodamine B assay; conditions: HOP-62, 48 h
[11] = Growth inhibition of human UACC257 cells incubated for 48 hrs by sulforhodamine B assay; conditions: UACC-257, 48 h
[12] = Growth inhibition of human UACC62 cells incubated for 48 hrs by sulforhodamine B assay; conditions: UACC-62, 48 h
CCRF-CEM = test: Growth inhibition of human CCRF-CEM cells incubated for 48 hrs by sulforhodamine B assay
EKVX [13] = test: Growth inhibition of human EKVX cells incubated for 48 hrs by sulforhodamine B assay
NCI-H226 = test: Growth inhibition of human NCI-H226 cells incubated for 48 hrs by sulforhodamine B assay; conditions: NCI-H226, 48 h
[14] = Growth inhibition of human HCT116 cells incubated for 48 hrs by sulforhodamine B assay; conditions: HCT-116, 48 h
[15] = Growth inhibition of human SKOV3 cells incubated for 48 hrs by sulforhodamine B assay; conditions: SK-OV-3, 48 h
M14 = test: Growth inhibition of human M14 cells incubated for 48 hrs by sulforhodamine B assay; conditions: M14, 48 h
[16] = read-out: pLC50 (the source's name) (converted)

Molecule `O=c1ccc2nc(C(F)(F)F)nn(-c3ccccc3)c-2c1` has a GI50 [1] of 15.5 µM, a CC50 [1, 16] of 57.5 µM and a TGI ([1]; read-out: pTGI (converted)) of 29.5 µM. It also gave a GI50 [2] of 2.14 µM, a CC50 [2, 16] greater than 100 µM and a TGI ([2]; read-out: pTGI (converted)) of 9.12 µM. The GI50 [3] was 22.9 µM, the CC50 [3, 16] was greater than 100 µM and the TGI ([3]; read-out: pTGI (converted)) was 67.6 µM. It also gave a GI50 (SN12C) of 7.24 µM, a CC50 (SN12C; [16]) greater than 100 µM and a TGI (SN12C; read-out: pTGI (converted)) of 57.5 µM. The GI50 (NCI-H322M) was 18.6 µM, the CC50 (NCI-H322M; [16]) was 61.7 µM and the TGI (NCI-H322M; read-out: pTGI (converted)) was 33.9 µM. It also gave a GI50 [4] of 2.29 µM, a CC50 [4, 16] of 8.13 µM and a TGI ([4]; read-out: pTGI (converted)) of 3.39 µM. The growth at 10 µM (EKVX [5]) was 95.8%, the GI50 (KM12) was 19.5 µM and the CC50 (KM12; [16]) was 70.8 µM. The TGI (KM12; read-out: pTGI (converted)) was 37.2 µM, the GI50 (Malme-3M) was 1.82 µM and the CC50 (Malme-3M; [16]) was 6.03 µM. For the same molecule, the TGI (Malme-3M; read-out: pTGI (converted)) was 3.31 µM, the GI50 (K562) was 2.09 µM and the CC50 (K562; [16]) was greater than 100 µM. The GI50 [6] was 1.48 µM, the CC50 [6, 16] was 5.62 µM and the TGI ([6]; read-out: pTGI (converted)) was 2.88 µM. For the same molecule, the GI50 [7] was 1.2 µM, the CC50 [7, 16] was greater than 100 µM and the TGI ([7]; read-out: pTGI (converted)) was 4.27 µM. It also gave a GI50 [8] of 15.5 µM, a CC50 [8, 16] of 55 µM and a TGI ([8]; read-out: pTGI (converted)) of 28.8 µM. The GI50 (MDA-MB-231) was 1.91 µM, the CC50 (MDA-MB-231; [16]) was 26.9 µM and the TGI (MDA-MB-231; read-out: pTGI (converted)) was 5.62 µM. For the same molecule, the GI50 (SR) was 1 µM, the CC50 (SR; [16]) was greater than 100 µM and the TGI (SR; read-out: pTGI) was greater than 100 µM. The GI50 [9] was 2.29 µM, the CC50 [9, 16] was greater than 100 µM and the TGI ([9]; read-out: pTGI (converted)) was 5.75 µM. The GI50 [10] was 7.94 µM, the CC50 [10, 16] was 83.2 µM and the TGI ([10]; read-out: pTGI (converted)) was 27.5 µM. The GI50 [11] was 1.91 µM, the CC50 [11, 16] was 8.51 µM and the TGI ([11]; read-out: pTGI (converted)) was 4.07 µM. For the same molecule, the GI50 [12] was 5.13 µM, the CC50 [12, 16] was 43.7 µM and the TGI ([12]; read-out: pTGI (converted)) was 17.8 µM. It also gave a GI50 (CCRF-CEM) of 2.34 µM, a CC50 (CCRF-CEM; [16]) greater than 100 µM and a GI50 (EKVX [13]) of 26.9 µM. For the same molecule, the CC50 (EKVX [13]; [16]) was 53.7 µM, the TGI (EKVX [13]; read-out: pTGI (converted)) was 26.9 µM and the GI50 (NCI-H226) was 13.2 µM. For the same molecule, the CC50 (NCI-H226; [16]) was 70.8 µM, the TGI (NCI-H226; read-out: pTGI (converted)) was 30.2 µM and the GI50 [14] was 1.62 µM. For the same molecule, the CC50 [14, 16] was 6.17 µM, the TGI ([14]; read-out: pTGI (converted)) was 3.16 µM and the GI50 [15] was 15.1 µM. For the same molecule, the CC50 [15, 16] was greater than 100 µM, the TGI ([15]; read-out: pTGI) was greater than 100 µM and the GI50 (M14) was 5.75 µM. The CC50 (M14; [16]) was 45.7 µM and the TGI (M14; read-out: pTGI (converted)) was 19.1 µM.

From ChEMBL document CHEMBL3813672, “Discovery of anti-cancer activity for benzo[1,2,4]triazin-7-ones: Very strong correlation to pleurotin and thioredoxin reductase inhibition” (Bioorg Med Chem, 2016)
